According to patent publication US10028992B2, “Methods of treating muscular dystrophy” (BOARD OF REGENTS OF THE NEVADA SYSTEM OF HIGHER EDUCATION …, priority 2012, dated 2018):

Test system: α7 integrin promoter
Assay: muscle cell-based assay: α7βgal+/− myoblasts/myotubes, LacZ reporter, β-galactosidase cleavage of FDG
Set-up: species or system mouse; Results in α7+/− β-galactosidase assay: scale not given here
Conditions: Myoblasts
Summary of the method: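 Primary α7βgal+/− mouse myoblasts (LacZ knocked into α7 integrin exon 1, promoter retained), differentiated; promoter activity read as β-galactosidase conversion of non-fluorescent FDG to fluorescein. Hits followed by dose-response, western analysis and myostatin counterscreen.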

| SMILES | Results in α7+/− β-galactosidase assay (0.5 uM) | Results in α7+/− β-galactosidase assay (1 uM) | Results in α7+/− β-galactosidase assay (5 uM) | Results in α7+/− β-galactosidase assay (10 uM) | Results in α7+/− β-galactosidase assay (20 uM) | Results in α7+/− β-galactosidase assay (40 uM) |
| --- | --- | --- | --- | --- | --- | --- |
| Cc1cc([N+](=O)[O-])ccc1NC(=O)C(C)N1CCN(c2ccccn2)CC1 (stereo not drawn) [drawing 601] | 0.08805 | 0.0582 | −0.01841 | −0.03065 | −0.0419 | −0.274 |
| CCc1nc(/C=C2\C(=O)Nc3ccccc32)c[nH]1 [drawing 602] | 0.2737 | 0.07781 | 0.08036 | 0.1565 | 0.1925 | −0.2038 |
| CCOC(=O)C1(Cc2cccc(Cl)c2)CCCN(C(=O)CCSC)C1 (stereo not drawn) [drawing 604] | 0.08932 | −0.00471 | −0.04484 | −0.02503 | −0.06029 | −0.2262 |
| Cc1cccc2c(/N=N/c3ccc(S(=O)(=O)Nc4ccc(Cl)cc4)cc3[N+](=O)[O-])c(O)[nH]c12 [drawing 605] | −0.02621 | −0.05717 | −0.2201 | −0.3043 | −0.4039 | −0.5304 |
| CC(C)c1ccc(OC(=O)c2cccc(S(=O)(=O)N3CCN(C)CC3)c2)cc1 [drawing 606] | −0.02855 | −0.1053 | 0.3741 | −0.02381 | 0.03734 | −0.08446 |
| CC(C)c1ccc(NC(=O)CN2C(=O)c3ccccc3S2(=O)=O)cc1 [drawing 607] | −0.1297 | −0.1704 | 0.367 | −0.05458 | −0.03658 | −0.09806 |
| NC(=O)c1sc2nc3c(cc2c1N)CCC3 [drawing 608] | 0.003482 | 0.04559 | 0.02429 | 0.07579 | 0.3169 | 0.4925 |
| O=C(Nc1ccccc1OC(=O)c1ccc(Cl)cc1)c1ccc(Cl)cc1 [drawing 609] | 0.03104 | 0.01493 | −0.04769 | −0.1879 | 0.6323 | −0.3765 |
| CC(NC(=O)c1ccc(C(C)(C)C)cc1)C(c1cccs1)N1CCOCC1 (stereo not drawn) [drawing 610] | 0.08931 | 0.1802 | 0.07478 | −0.02239 | −0.1131 | −0.1382 |
| CCC(=O)c1ccc(OCC(O)CN2CCOC(C)C2)cc1.O=C(O)C(=O)O (stereo not drawn) [drawing 611] | 0.222 | 0.08832 | −0.02345 | −0.1332 | 0.0354 | 0.02206 |
| CC1CCN(C(CNS(=O)(=O)c2ccccc2)c2ccccc2)CC1 (stereo not drawn) [drawing 612] | 0.05229 | −0.05932 | −0.02531 | −0.1141 | −0.291 | −0.3822 |
| COC(=O)c1ccc(/N=N/c2ccccc2)cc1 [drawing 613] | 0.1047 | 0.17 | −0.07402 | −0.1217 | −0.1237 | −0.2361 |
| CN(CCC1CCCCO1)C(=O)CCc1nnc(CCCCc2ccccc2)o1 (stereo not drawn) [drawing 615] | −0.05982 | −0.07538 | −0.00182 | −0.02349 | 0.02509 | −0.00588 |
| c1ccc(-c2nn[nH]n2)nc1 [drawing 616] | −0.1138 | −0.161 | 0.4758 | −0.06661 | 0.6134 | −0.02456 |
